Experimental data as given in ChEMBL document CHEMBL1201862, “PubChem BioAssay data set” (2004).
“And” between values parts separate entries of the source, which are not always exact repeats. Equal entries are not always repeated. Structures can show the parent of a compound that is named as a salt.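 Method: 48-hour compound exposure of cells in 96-well plates, five concentrations, linear interpolation of endpoints. The concentration for 50% growth inhibition is given as GI50.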 The source made the active and inactive calls. No stated cut-off is given here; in the data, active = GI50 up to about 1.1 µM and inactive = higher. Residues, ends and D or L forms follow the SMILES beside them. *: point of attachment. Tfa = O=C(C(F)(F)F)*

Columns and labels:
Assay in all cases: DTP human tumour cell line panel, 48 h
786-0 = tested on: 786-0
BT-549 = tested on: BT-549
CAKI-1 = tested on: CAKI-1
COLO 205 = tested on: COLO 205
HCT-15 = tested on: HCT-15
HOP-62 = tested on: HOP-62
IGROV-1 = tested on: IGROV-1
K562 = tested on: K562
MDA-N = tested on: MDA-N
Malme-3M = tested on: Malme-3M
NCI/ADR-RES = tested on: NCI/ADR-RES
OVCAR-8 = tested on: OVCAR-8
SF-295 = tested on: SF-295
SK-MEL-2 = tested on: SK-MEL-2
SN12C = tested on: SN12C
SNB-19 = tested on: SNB-19
SW-620 = tested on: SW-620
U-251 = tested on: U-251
UACC-62 = tested on: UACC-62
DMS-114 = tested on: DMS-114

| Structure (SMILES) | GI50 (786-0) | GI50 (BT-549) | GI50 (CAKI-1) | GI50 (COLO 205) | GI50 (HCT-15) | GI50 (HOP-62) | GI50 (IGROV-1) | GI50 (K562) | GI50 (MDA-N) | GI50 (Malme-3M) | GI50 (NCI/ADR-RES) | GI50 (OVCAR-8) | GI50 (SF-295) | GI50 (SK-MEL-2) | GI50 (SN12C) | GI50 (SNB-19) | GI50 (SW-620) | GI50 (U-251) | GI50 (UACC-62) | GI50 (DMS-114) |
| --- | --- | --- | --- | --- | --- | --- | --- | --- | --- | --- | --- | --- | --- | --- | --- | --- | --- | --- | --- | --- |
| c1cc(CSSCc2ccncc2)ccn1 | 10.4 µM (inactive) | 51.6 µM (inactive) | 29.5 µM (inactive) | 8.11 µM (inactive) | 19.4 µM | 46.2 µM (inactive) | 30.5 µM (inactive) | 14.8 µM (inactive) | 12.9 µM (inactive) | 24.9 µM (inactive) | 30.5 µM (inactive) | 21.7 µM (inactive) | 37.6 µM (inactive) | 27.9 µM (inactive) | 25.2 µM (inactive) | 34 µM (inactive) | 6.27 µM (inactive) | 23.3 µM (inactive) | 24.9 µM (inactive) |  |
| O=C(c1ccc(O)c([N+](=O)[O-])c1)c1ccc(O)c([N+](=O)[O-])c1 | > 100 µM (inactive) | 33 µM (inactive) | > 100 µM (inactive) | > 100 µM (inactive) | > 100 µM | > 100 µM (inactive) | > 100 µM (inactive) | 50.1 µM (inactive) | 53.7 µM (inactive) | 37 µM (inactive) | 43.6 µM (inactive) | > 100 µM (inactive) | 46.3 µM (inactive) | > 100 µM (inactive) | > 100 µM (inactive) | > 100 µM (inactive) | 55.6 µM (inactive) | > 100 µM (inactive) | 37.1 µM (inactive) |  |
| CCCCCC(=O)Nc1[nH]nnc1C(N)=O | > 100 µM (inactive) | > 100 µM (inactive) | > 100 µM (inactive) | > 100 µM (inactive) | > 100 µM | > 100 µM (inactive) | > 100 µM (inactive) | > 100 µM (inactive) | > 100 µM (inactive) | > 100 µM (inactive) | > 100 µM (inactive) | > 100 µM (inactive) | > 100 µM (inactive) | > 100 µM (inactive) | > 100 µM (inactive) | > 100 µM (inactive) | > 100 µM (inactive) | > 100 µM (inactive) | > 100 µM (inactive) |  |
| Clc1ccc(-c2nn3c(COc4cccc(OCc5nnc6sc(-c7ccc(Cl)cc7)nn56)c4)nnc3s2)cc1 | 15.1 µM (inactive) | 30.7 µM (inactive) | 22 µM (inactive) | 29.2 µM (inactive) | 27.5 µM | 56.6 µM (inactive) | 26.8 µM (inactive) | 24.4 µM (inactive) | 15.7 µM (inactive) | 19.2 µM (inactive) | 36.9 µM (inactive) | 28.9 µM (inactive) | 31.3 µM (inactive) | 58.5 µM (inactive) | 12.6 µM (inactive) | 24.6 µM (inactive) | 25.9 µM (inactive) | 24.3 µM (inactive) | 23.2 µM (inactive) |  |
| Cn1ncc(=S)[nH]c1=S | > 100 µM (inactive) |  |  | > 100 µM (inactive) | > 100 µM | > 100 µM (inactive) | > 100 µM (inactive) | > 100 µM (inactive) |  | > 100 µM (inactive) |  | > 100 µM (inactive) | > 100 µM (inactive) | > 100 µM (inactive) | > 100 µM (inactive) | > 100 µM (inactive) | > 100 µM (inactive) | > 100 µM (inactive) | > 100 µM (inactive) | > 100 µM (inactive) |
| CN(C)C(=N)NC(N)=S | > 100 µM (inactive) |  | > 100 µM (inactive) | > 100 µM (inactive) | > 100 µM | > 100 µM (inactive) | > 100 µM (inactive) | > 100 µM (inactive) |  | > 100 µM (inactive) |  | > 100 µM (inactive) | > 100 µM (inactive) |  | > 100 µM (inactive) | > 100 µM (inactive) | > 100 µM (inactive) | > 100 µM (inactive) | > 100 µM (inactive) | > 100 µM (inactive) |
| CCCCCC(/C=C/C1CCC(=O)C1)OCOCCOC (configuration not stated) | 19.3 µM (inactive) | 27.9 µM (inactive) | 31.5 µM (inactive) | 48.8 µM (inactive) | 31.1 µM | > 100 µM (inactive) | 42.2 µM (inactive) | 25.8 µM (inactive) | 40.2 µM (inactive) | > 78.9 µM (inactive) | 30 µM (inactive) | 33.9 µM (inactive) | > 58.7 µM (inactive) | 64.6 µM (inactive) | 57.5 µM (inactive) | > 53.3 µM (inactive) | 29.8 µM (inactive) | 38.1 µM (inactive) | 36.6 µM (inactive) |  |
| CCOC(=O)C1Oc2ccc([N+](=O)[O-])cc2C1(C)O (configuration not stated) | > 100 µM (inactive) |  |  | > 100 µM (inactive) | > 100 µM | > 100 µM (inactive) | > 100 µM (inactive) | > 100 µM (inactive) |  | > 100 µM (inactive) |  | > 100 µM (inactive) | > 100 µM (inactive) | > 100 µM (inactive) | > 100 µM (inactive) | > 100 µM (inactive) | > 100 µM (inactive) | > 100 µM (inactive) | > 100 µM (inactive) | > 100 µM (inactive) |
| C=CCOC1=C2CC[C@H](O)[C@@]2(C)CCC1=O | > 100 µM (inactive) |  | > 100 µM (inactive) | > 100 µM (inactive) | > 100 µM | > 100 µM (inactive) | > 100 µM (inactive) |  |  | > 100 µM (inactive) |  | > 100 µM (inactive) | > 100 µM (inactive) |  | > 100 µM (inactive) | > 100 µM (inactive) | > 100 µM (inactive) | > 100 µM (inactive) | > 100 µM (inactive) | > 100 µM (inactive) |
| CC(C)[C@@H]1NC(=O)[C@H]2N=C(O[C@@H]2C)[C@@H]2CCCN2C(=O)[C@H](Cc2ccccc2)NC(=O)[C@@H]2CSC(=N2)[C@@H](Cc2ccccc2)NC(=O)[C@@H]2CSC1=N2 | > 50 µM (inactive) | > 50 µM (inactive) | > 50 µM (inactive) | 24.7 µM (inactive) | 33.2 µM | > 50 µM (inactive) | > 50 µM (inactive) | 9.38 µM (inactive) | > 50 µM (inactive) | > 50 µM (inactive) | > 50 µM (inactive) | > 50 µM (inactive) | 34.6 µM (inactive) | > 50 µM (inactive) | > 50 µM (inactive) | > 50 µM (inactive) | > 50 µM (inactive) | > 50 µM (inactive) | > 50 µM (inactive) |  |
| CC(=O)OCC1OC(n2c(=S)n(-c3ccccc3)c(=O)c3cc(Br)ccc32)C(OC(C)=O)C(OC(C)=O)C1OC(C)=O (configuration not stated) | > 100 µM (inactive) |  | > 100 µM (inactive) | > 100 µM (inactive) | > 100 µM | > 100 µM (inactive) | > 100 µM (inactive) | > 100 µM (inactive) |  |  |  | > 100 µM (inactive) |  |  | > 100 µM (inactive) | > 100 µM (inactive) and 70.5 µM (inactive) | > 100 µM (inactive) | > 100 µM (inactive) | > 100 µM (inactive) | > 100 µM (inactive) |
| CC(C)CC(N)C(=O)NC(C(=O)NC(CCCNC(=N)N)C(=O)NC(CS)C(=O)NC1CSCC(C(=O)NC(Cc2ccccc2)C(=O)NC(C(=O)NC(CCCNC(=N)N)C(=O)O)C(C)C)NC(=O)C2CCCN2C(=O)C(CCCCN)NC(=O)C2CCCN2C(=O)C2CCCN2C(=O)C(Cc2ccc(O)cc2)NC(=O)C(CO)NC(=O)C(CCCCN)NC(=O)C(C(C)O)NC(=O)C(Cc2c[nH]c3ccccc23)NC1=O)C(C)C (configuration not stated) | > 25 µM (inactive) | > 25 µM (inactive) | > 25 µM (inactive) | > 25 µM (inactive) | > 25 µM | > 25 µM (inactive) | > 25 µM (inactive) | > 25 µM (inactive) | > 25 µM (inactive) | > 25 µM (inactive) | > 25 µM (inactive) | > 25 µM (inactive) | > 25 µM (inactive) | > 25 µM (inactive) | > 25 µM (inactive) | > 25 µM (inactive) | > 25 µM (inactive) | > 25 µM (inactive) | > 25 µM (inactive) |  |
| O=CN1CCN(C(=O)c2ccco2)C1=S | 3.13 µM (inactive) | 5.5 µM (inactive) | 5.38 µM (inactive) | 10.1 µM (inactive) | 7.83 µM | 13.2 µM (inactive) | 9.38 µM (inactive) | 3.25 µM (inactive) | 7.62 µM (inactive) | 11.3 µM (inactive) | 23.4 µM (inactive) | 16 µM (inactive) | 22.5 µM (inactive) | 17.2 µM (inactive) | 4.01 µM (inactive) | 22.1 µM (inactive) | 5.82 µM (inactive) | 13.9 µM (inactive) | 8.04 µM (inactive) |  |
| O=C(O)CC(NC(=O)C(F)(F)F)C(=O)NC(Cc1ccc(O)cc1)C(=O)O (stereo not drawn) (Tfa-Asp-Tyr-OH; configuration not given here) | > 50 µM (inactive) | > 50 µM (inactive) | > 50 µM (inactive) | > 50 µM (inactive) | > 50 µM | > 50 µM (inactive) | > 50 µM (inactive) | > 50 µM (inactive) | > 50 µM (inactive) | > 50 µM (inactive) | > 50 µM (inactive) | > 50 µM (inactive) | > 50 µM (inactive) | > 50 µM (inactive) | > 50 µM (inactive) | > 50 µM (inactive) | > 50 µM (inactive) | > 50 µM (inactive) | > 50 µM (inactive) |  |
| COc1ccc(-c2oc3cc(OC)c(OC)c(OC)c3c(=O)c2OC)cc1OC [HEXAMETHOXYFLAVONE] | > 100 µM (inactive) | > 100 µM (inactive) | > 100 µM (inactive) | > 100 µM (inactive) | > 100 µM | > 100 µM (inactive) | > 100 µM (inactive) | > 100 µM (inactive) | > 100 µM (inactive) | > 100 µM (inactive) | > 100 µM (inactive) | > 100 µM (inactive) | > 100 µM (inactive) | > 100 µM (inactive) | > 100 µM (inactive) | > 100 µM (inactive) | > 100 µM (inactive) | > 100 µM (inactive) | > 100 µM (inactive) |  |
